Measurements reported in article PMC9965520, “An Efficient Peptidomics Screening for Exogenous Substrates and Inhibitory Peptides of the Dipeptidase ACE from Milk Hydrolysate” (Pharmaceutics, 2023).
No end group written: not given here.

Experiments:
ACE [1] = target: T1, ACE (Oryctolagus cuniculus, UniProt P12822); assay: ACE pre-incubation of milk hydrolysate peptide libraries, stable-isotope dimethyl labeling and LC-MS/MS (D/H ratio); type: in vitro ADME, rabbit; set-up: ACE (EC 3.4.15.1, 1 unit) from rabbit lungs; purchased Sigma Chemical Co. (St. Louis, MO, USA); host or cells: rabbit lungs (tissue-derived enzyme); details: milk hydrolysate peptide library (<3 kDa); ACE-treated (0.05 mU/μL ACE, borate buffer, 37 °C, 3 h: 1.5 h static + 1.5 h 200 rpm; D-labeled) versus untreated (H-labeled) peptide; intensity ratio in LC-MS; <1 = hydrolysed by ACE
T1 sequence (P12822 34-1310): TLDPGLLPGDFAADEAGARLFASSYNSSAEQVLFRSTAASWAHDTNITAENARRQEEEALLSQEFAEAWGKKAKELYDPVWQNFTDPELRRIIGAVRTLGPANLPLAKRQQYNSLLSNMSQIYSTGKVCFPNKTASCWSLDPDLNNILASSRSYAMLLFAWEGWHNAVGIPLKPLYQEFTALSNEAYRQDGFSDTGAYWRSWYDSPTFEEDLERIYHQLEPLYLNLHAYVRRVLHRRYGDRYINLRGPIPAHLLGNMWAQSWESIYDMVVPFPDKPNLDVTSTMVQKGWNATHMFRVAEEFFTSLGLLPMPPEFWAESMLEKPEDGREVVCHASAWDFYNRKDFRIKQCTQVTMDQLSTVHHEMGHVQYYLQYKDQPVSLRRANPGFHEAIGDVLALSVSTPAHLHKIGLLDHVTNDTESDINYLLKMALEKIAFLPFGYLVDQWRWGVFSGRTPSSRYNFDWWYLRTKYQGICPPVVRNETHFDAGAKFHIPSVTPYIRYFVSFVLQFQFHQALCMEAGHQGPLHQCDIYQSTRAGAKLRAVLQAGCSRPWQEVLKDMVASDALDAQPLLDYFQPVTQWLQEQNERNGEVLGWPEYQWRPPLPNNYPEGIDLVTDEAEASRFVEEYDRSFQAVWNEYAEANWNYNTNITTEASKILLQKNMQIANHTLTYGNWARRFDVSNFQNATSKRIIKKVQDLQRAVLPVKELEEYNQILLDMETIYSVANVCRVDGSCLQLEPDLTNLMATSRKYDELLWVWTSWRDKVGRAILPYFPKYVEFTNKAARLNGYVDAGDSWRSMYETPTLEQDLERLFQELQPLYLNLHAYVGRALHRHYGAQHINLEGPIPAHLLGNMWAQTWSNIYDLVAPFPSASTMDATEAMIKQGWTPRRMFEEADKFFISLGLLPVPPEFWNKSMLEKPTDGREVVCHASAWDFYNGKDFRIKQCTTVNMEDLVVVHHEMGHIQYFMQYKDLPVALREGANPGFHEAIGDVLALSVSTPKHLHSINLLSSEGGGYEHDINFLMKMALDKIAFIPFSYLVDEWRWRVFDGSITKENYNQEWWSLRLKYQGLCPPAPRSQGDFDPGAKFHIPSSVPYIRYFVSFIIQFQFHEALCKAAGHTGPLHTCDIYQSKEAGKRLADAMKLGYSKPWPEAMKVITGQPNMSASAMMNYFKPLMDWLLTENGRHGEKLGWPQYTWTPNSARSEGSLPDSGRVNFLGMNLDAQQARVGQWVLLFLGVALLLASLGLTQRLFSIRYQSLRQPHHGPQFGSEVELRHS
Method: The peptide libraries (200 μg) dissolved in borate buffer were equally divided into two parts, one was without any treatment (control group); the other part (experimental group) was incubated with 0.05 mU/μL ACE at 37℃ for 1.5 h statically, followed by gentle shaking at 200 rpm for another 1.5 h, and then the ACE reaction was quenched using 60 μL of 1N HCl. After lyophilization, both samples were redissolved in 100 μL of 0.1M sodium acetate and modified using stable-isotope dimethyl labeling according to the previous study with slight modifications. Briefly, the control group (without ACE incubation) had 4 μL of formaldehyde (37% solution in H2O) and 1 M NaBH3CN (10 μL) added to it; the experimental group had 20% formaldehyde-d2 (8 μL) and 1M NaBH3CN (10 μL) added to it. After 1h, 5 μL of ammonia (28% solution in H2O) were added individually to both groups to stop the reaction. The experimental group and the control group were combined and desalted using the PepClean™C18 spin column. The resulting peptide mixture was lyophilized and kept at −20 °C prior to LC-MS/MS analysis. Formaldehyde is known to the state of California to cause cancer; special caution was taken including the use of surgical gloves and a fume hood when formaldehyde was handled.
The combined mixture re-dissolved in 5% ACN containing 0.1% formic acid was separated using an Ultimate 3000 RSLC system (Dionex, Sunnyvale, CA, USA) coupled with a C18 column (Acclaim PepMap RSLC, 75 μm × 150 mm, Thermo Scientific, Waltham, Middlesex, MA, USA) and analyzed with a Thermo Q-ExactiveTM mass spectrometer (Thermo Scientific Inc., Waltham, Middlesex, MA, USA). The elution solution was composed of mobile phase A (0.1% formic acid in water) and B (0.1% formic acid in 95% acetonitrile). The elution gradient was arranged as follows: (i) isocratic elution using 1% B in the first 5.5 min for sample loading, (ii) linear gradient from 1% to 60% B in the next 39.5 min, (iii) linear gradient from 60% to 80% B in the following 10 min, and finally (iv) isocratic elution using 1% solution B for 10 min. The flow rate applied in the LC separation was maintained at 250 µL/min. The separated peptides were analyzed and quantified using Q-ExactiveTM mass spectrometry which was operated in the data-dependent mode and switched automatically between MS and HCD-MS2. A full MS scan was carried out in a 100 and 1500 m/z range, and the 14 ions of the highest intensities were selected for MS/MS scans. The RAW data were converted to the MGF file format followed by database-assisted sequencing with PEAKS DB using PEAKS Studio X (Bioinformatics Solutions Inc., Waterloo, ON, Canada). The parameters used for peptide identification were listed as follows: (1) Database: UniProt_SwissProt (Bos taurus); (2) Enzyme: pepsin, trypsin, α-chymotrypsin, or GI (the combination of these three proteases); (3) Type of enzyme: Unspecific; (4) Instrument: Orbitrap; (5) Parent mass error tolerance: 20 ppm; (6) Fragment mass error tolerance: 0.6 Da; (7) Variable modifications: Dimethyl (K), Dimethyl (N-term), Dimethyl:2H(4) (K), and Dimethyl:2H(4) (N-term) were used for identification and quantitative analysis. The sequence identified through the database was validated by manually matching with the MS/MS spectrum in the raw data. In addition to MS/MS analysis coupled with PEAKS studio, the ACE’s substrate candidates were further confirmed using the synthetic peptides with corresponding sequences by comparison with their LC retention times, m/z values, and MS/MS spectra. The relative abundances of hydrogen (H) and deuterium (D) labeled peptides were quantified based on the peak areas in their corresponding selective ion chromatograms (SIC). The D/H ratio of identified peptide with the same sequence was further examined by their relative signal intensities in MS spectrum. Theoretically, the D/H ratio of the isobaric pair should stay at 1 if the peptide will not react with ACE. […]

ACE [2] = details: 3 h of incubation with ACE; ref 21 (Forghani et al.); cited from earlier work
Method: To investigate the sequence conservation of the exogenous substrates, the identified substrates listed on Table 1 were analyzed using Weblogo (https://weblogo.berkeley.edu/). WebLogo is the software designed to analyze the frequency of residues that appeared at various positions in a sequence library. The font size of each letter (residue) represents the frequency appearance of each residue at a certain position. The order from the most frequent to the least frequent is arranged from the top to the bottom for each residue. The chemical properties of amino acid residues are classified by ...

ACE [3] = target: T1, ACE; details: pH 8.3
Method: To a mixture of Ang-I (1 μg) and peptide substrate (1 μg) in 50 µL of borate buffe (200 mM borate buffer, 300 mM NaCl, pH 8.3), 20 µL of ACE (0.05 mU/µL) was added. The mixture was incubated at 37 °C and monitored using LC-MS/MS at 1, 2, 3, 4, 6, and 10 h. The LC separation was performed on Syncronis C18 column (150 mm × 2.1 mm, 5 µm, Thermo Scientific) and eluted with the mobile phase A (5% ACN and 0.1% FA) and B (95% ACN and 0.1% FA) at a flow rate of 350 µL/min. The elution gradient was programmed as (i) 0–5 min, isocratic elution with 5% B; (ii) 5–20 min, linear gradient from 5% to 55% B; (iii) 20–22 min, linear gradient from 55% to 80% solution B; and finally (iv) 22–30 min, isocratic elution maintained at 80% solution B. The degradation of Ang-I and the formation of Ang-II were analyzed using selective ion chromatogram (SIC) on a triple quadrupole mass analyzer (TSQ, Thermo Scientific). The percentage of the remaining angiotensin I (RA%) at each time point was calculated as AI/(AI + AII) × 100%, where AI is the SIC peak area of remaining Ang-I and AII is the peak area of the resulting Ang-II.

ACE [4] = target: T1, ACE; assay: ACE hydrolysis of synthetic substrate candidates monitored by LC-MS at different incubation times; type: in vitro ADME, rabbit; set-up: ACE (EC 3.4.15.1, 1 unit) from rabbit lungs; purchased Sigma Chemical Co. (St. Louis, MO, USA); host or cells: rabbit lungs (tissue-derived enzyme); details: synthetic peptide incubated with ACE, 37 °C, 3 h, LC-MS/MS
Method: To confirm the reactivity of the identified peptide candidates towards ACE, the synthetic peptides were individually mixed with ACE and incubated at 37 °C for 3 h. The remaining peptide substrate and the resulting product were analyzed using LC-MS/MS. Meanwhile, the degradation rate of each peptide was monitored every 30 min using LC-MS. The percentage of the remaining substrate (RS%) at each time point was calculated as As/(As + Ap) 100%. In which, As is the selective ion chromatogram (SIC) peak area of remaining substrate and Ap is the peak area of the resulting product. The RS% was further compared with the D/H ratio obtained in Section 2.4.

Row | Substance | D/H Ratio (ACE [1]) | further results
1 | ALNEINQFY [ALNEINQFY] | 0.84 | 
2 | ALPMHIR [ALPMHIR] | 0.15 | 
3 | AVPYPQR [AVPYPQR] | 0.44 | 
4 | CRQNTLGHNTQTSIAQ |  | peptide loss on incubation with ACE (ACE [2]): 7%
5 | DMPIQAF [DMPIQAF] | 0.55 | 
6 | DMPIQAFL [DMPIQAFL] | 0.59 | 
7 | DRVYIHPFHL [Ang-I, angiotensin I, reference compound] |  | Hydrolysis of Ang-I by ACE without exogenous substrates (ACE [3]): hydrolyzed almost completely
8 | FALPQYLK [FALPQYLK] | 0.94 | 
9 | FPQYLQY [FPQYLQY] | 0.12 | 
10 | HPHPHLSF [HPHPHLSF] | 0.15 | 
11 | HQGLPQEVLNENLLR [HQGLPQEVLNENLLR] | 0.76 | 
12 | HQPHQPLPPTVM [HQPHQPLPPTVM] | 0.40 | 
13 | IASGEPTSTPTTE [IE-13] |  | Hydrolysis of synthetic peptide by ACE (result in words) (ACE [4]): avoid ACE’s hydrolysis
14 | INNQFLPYPYY [INNQFLPYPYY] | 0.33 | 
15 | IPPLTQT [IPPLTQT] | 0.47 | 
16 | KVIPYVRY [KVIPYVRY] | 0.66 | 
17 | LRPVAAEIY [LRPVAAEIY] | 0.65 | 

Row | Substance | D/H Ratio (ACE [1]) | further results
18 | LVYPFPGPIHN [LVYPFPGPIHN] |  | Hydrolysis of synthetic peptide by ACE (result in words) (ACE [4]): retard the second cleavage
19 | LVYPFPGPLHNSL [LVYPFPGPLHNSL] |  | Hydrolysis of synthetic peptide by ACE (result in words) (ACE [4]): readily hydrolyzed by ACE
20 | LYQGPIVL [LYQGPIVL] |  | Hydrolysis of synthetic peptide by ACE (result in words) (ACE [4]): survive from ACE’s hydrolysis
21 | MFPPQSVL [MFPPQSVL] | 0.21 | 
22 | NAVPITPTLNR [NAVPITPTLNR] | 0.61 | 
23 | NIPPLTQTPV [NV-10] |  | Hydrolysis of synthetic peptide by ACE (result in words) (ACE [4]): avoid ACE’s hydrolysis
24 | QLDAYPSGAW [QLDAYPSGAW] | 0.47 | 
25 | QVSLNSGY [QVSLNSGY] | 0.56 | 
26 | SAYPGQITSN [SAYPGQITSN] | 0.65 | 
27 | SIVHPSY [SIVHPSY] | 0.18 | 
28 | SRYPSYGLN [SRYPSYGLN] | 0.81 | 
29 | TTMPLW [TTMPLW] | 0.15 | 
30 | VAPFPEVFG [VAPFPEVFG] | 0.83 | 
31 | VRSPAQILQ [VRSPAQILQ] |  | Hydrolysis of synthetic peptide by ACE (result in words) (ACE [4]): survive from ACE’s hydrolysis
32 | VVPPFLQPEVM [VVPPFLQPEVM] | 0.80 | 
33 | YPVEPFTESQSL [YPVEPFTESQSL] | 0.76 | 
